pEC50: −log10 of the molar value. Calls of active or inactive are those of the source. The rule behind the calls is not given here.
Legend:
[1] = Activation of human recombinant AMPK alpha2/beta1/gamma1 using substrate-1 peptide as substrate incubated for 45 mins in presence of ATP by HTRF assay; conditions: for pEC50: read-out: EC50
Homo sapiens = organism: Homo sapiens; test: Activation of human recombinant AMPK alpha2/beta1/gamma1 using substrate-1 peptide as substrate incubated for 45 mins in presence of ATP by HTRF assay relative to negative control
HepG2 [2] = test: Activation of AMPK in human HepG2 cells assessed as induction of AMPK phosphorylation at alpha subunit at 2.5 to 20 uM measured after 1 hr by Western blot analysis; format: cell-based; conditions: filed as activator, dose 2.5-20 µM
HepG2 [3] = test: Activation of AMPK in human HepG2 cells assessed as induction of ACC phosphorylation at Ser79 residue at 2.5 to 20 uM measured after 1 hr by Western blot analysis; format: cell-based; conditions: filed as activator, dose 2.5-20 µM
[4] = Inhibition of gluconeogenesis in C57/BL6 mouse primary hepatocytes at 10 to 20 uM measured after 6 hrs relative to control; format: functional, Hepatocyte; conditions: dose 10-20 µM
L6 = test: Effect on mitochondrial membrane potential in rat L6 cells at 5 to 40 uM measured after 1 hr by JC-1 staining based assay; format: functional, cell-based; conditions: dose 5-40 µM
Hepatocyte = test: Cytotoxicity against C57/BL6 mouse primary hepatocytes at 5 to 40 uM measured after 24 hrs by sulforhodamine B assay; format: cell-based; conditions: dose 5-40 µM
[5] = Inhibition of gluconeogenesis in C57/BL6 mouse primary hepatocytes at 20 uM measured after 6 hrs relative to control; format: functional; conditions: C57/BL6, Hepatocyte
HepG2 [6] = test: Activation of AMPK in human HepG2 cells assessed as induction of AMPK phosphorylation of Thr-172 residue at alpha subunit measured after 1 hr by Western blot analysis; format: cell-based; conditions: filed as activator, dose 2.5-20 µM
HepG2 [7] = test: Activation of AMPK in human HepG2 cells assessed as induction of ACC phosphorylation at Ser79 residue measured after 1 hr by Western blot analysis; format: cell-based; conditions: filed as activator, dose 2.5-20 µM
Syrian golden hamster [8] = test: Antidyslipidemic activity against HFHC diet-induced hyperlipidemia in Golden Syrian hamster model assessed as decrease in low density lipoprotein cholesterol at 100 mg/kg, po bid via gavage administered for 2 weeks and measured after 28 days by automated chemistry analyzer; format: functional, organism-based; conditions: Mesocricetus auratus
Syrian golden hamster [9] = test: Antidyslipidemic activity against HFHC diet-induced hyperlipidemia in Golden Syrian hamster model assessed as decrease in total cholesterol level at 100 mg/kg, po bid via gavage administered for 2 weeks and measured after 28 days by automated chemistry analyzer; format: functional, organism-based; conditions: Mesocricetus auratus
Syrian golden hamster [10] = test: Antidyslipidemic activity against HFHC diet-induced hyperlipidemia in Golden Syrian hamster model assessed as decrease in ratio of LDL-C to HDL-C at 100 mg/kg, po bid via gavage administered for 2 weeks and measured after 28 days by automated chemistry analyzer; format: functional, organism-based; conditions: Mesocricetus auratus
Syrian golden hamster [11] = test: Antidyslipidemic activity against HFHC diet-induced hyperlipidemia in Golden Syrian hamster model assessed as decrease in high density lipoprotein cholesterol at 100 mg/kg, po bid via gavage administered for 2 weeks and measured after 28 days by automated chemistry analyzer; format: functional, organism-based; conditions: Mesocricetus auratus
HepG2 [12] = test: Activation of AMPK in human HepG2 cells assessed as induction of ACC phosphorylation at Ser79 residue at 20 uM measured after 1 hr by Western blot analysis; format: cell-based; conditions: filed as activator
HepG2 [13] = test: Activation of AMPK in human HepG2 cells assessed as induction of AMPK phosphorylation at alpha subunit at 20 uM measured after 1 hr by Western blot analysis; format: cell-based; conditions: filed as activator
Syrian golden hamster [14] = test: Antidyslipidemic activity against HFHC diet-induced hyperlipidemia in Golden Syrian hamster model assessed as decrease in triglycerides at 100 mg/kg, po bid via gavage administered for 2 weeks and measured after 28 days by automated chemistry analyzer; format: functional, organism-based; conditions: Mesocricetus auratus

pEC50 [1]	fold change (FC) (Homo sapiens; filed as activator)	SMILES	also measured
6.00	2.7	COc1ccc(CNCCC[C@](C)(O)[C@H]2CC[C@]3(C)[C@@H]2[C@H](O)C[C@@H]2[C@@]4(C)C[C@@H](O)[C@H](O)C(C)(C)[C@@H]4CC[C@]23C)cc1	–
5.74	2.3	CCNCCC[C@](C)(O)[C@H]1CC[C@]2(C)[C@@H]1[C@H](O)C[C@@H]1[C@@]3(C)C[C@@H](O)[C@H](O)C(C)(C)[C@@H]3CC[C@]12C	–
5.29	3.4	CC1(C)[C@@H](O)[C@H](O)C[C@]2(C)[C@H]3C[C@@H](O)[C@@H]4[C@@H]([C@@](C)(O)CCCNCc5ccccc5)CC[C@@]4(C)[C@]3(C)CC[C@@H]12	–
6.10	3	CC1(C)[C@@H](O)[C@H](O)C[C@]2(C)[C@H]3C[C@@H](O)[C@@H]4[C@@H]([C@@](C)(O)CCCNCc5ccccn5)CC[C@@]4(C)[C@]3(C)CC[C@@H]12	Activity (HepG2 [2]): Active; Activity (HepG2 [3]): Active; inhibition (INH) [4]: 20%; Activity (L6): Active
5.92	2	CC1(C)[C@@H](O)[C@H](O)C[C@]2(C)[C@H]3C[C@@H](O)[C@@H]4[C@@H]([C@@](C)(O)CCCNCCc5ccccc5)CC[C@@]4(C)[C@]3(C)CC[C@@H]12	–
6.52	3.2	CC1(C)[C@@H](O)[C@H](O)C[C@]2(C)[C@H]3C[C@@H](O)[C@@H]4[C@@H]([C@@](C)(O)CCCNCc5ccc(F)cc5)CC[C@@]4(C)[C@]3(C)CC[C@@H]12	Activity (L6): Active; Activity (Hepatocyte): Non-Toxic; inhibition at 20 µM [5]: 80%; Activity (HepG2 [6]): Dose-dependent effect; Activity (HepG2 [7]): Dose-dependent effect
5.92	4.1	CC1(C)[C@@H](O)[C@H](O)C[C@]2(C)[C@H]3C[C@@H](O)[C@@H]4[C@@H]([C@@](C)(O)CCCNCc5ccncc5)CC[C@@]4(C)[C@]3(C)CC[C@@H]12	–
6.00	2.8	CC1(C)[C@@H](O)[C@H](O)C[C@]2(C)[C@H]3C[C@@H](O)[C@@H]4[C@@H]([C@@](C)(O)CCCNCc5cccnc5)CC[C@@]4(C)[C@]3(C)CC[C@@H]12	Activity (HepG2 [2]): Active; Activity (HepG2 [3]): Active; inhibition (INH) [4]: 20%; Activity (L6): Active

Second part, the compound before the results:

SMILES	pEC50 [1]	fold change (FC) (Homo sapiens; filed as activator)	also measured
CC(C)(C)NCCC[C@](C)(O)[C@H]1CC[C@]2(C)[C@@H]1[C@H](O)C[C@@H]1[C@@]3(C)C[C@@H](O)[C@H](O)C(C)(C)[C@@H]3CC[C@]12C	5.31	2.1	–
COc1ccc(CNCCC[C@](C)(O)[C@H]2CC[C@]3(C)[C@@H]2[C@H](O)C[C@@H]2[C@@]4(C)C[C@@H](O)[C@H](O)C(C)(C)[C@@H]4CC[C@]23C)cc1OC	5.96	2.8	–
COc1ccc(NCCC[C@](C)(O)[C@H]2CC[C@]3(C)[C@@H]2[C@H](O)C[C@@H]2[C@@]4(C)C[C@@H](O)[C@H](O)C(C)(C)[C@@H]4CC[C@]23C)cc1	5.42	2.9	–
Nc1ncnc2c1ncn2[C@@H]1O[C@H](COP(=O)(O)O)[C@@H](O)[C@H]1O [ADENOSINE PHOSPHATE]	5.80	3.2	–
CC(C)CCC[C@](C)(O)[C@H]1CC[C@]2(C)[C@@H]1[C@H](O)C[C@@H]1[C@@]3(C)C[C@@H](O)[C@H](O)C(C)(C)[C@@H]3CC[C@]12C	–	–	EC50 [1]: Not Active; fold change (FC) (Homo sapiens): < 1.5
C[C@H](NCCC[C@](C)(O)[C@H]1CC[C@]2(C)[C@@H]1[C@H](O)C[C@@H]1[C@@]3(C)C[C@@H](O)[C@H](O)C(C)(C)[C@@H]3CC[C@]12C)c1ccccc1	5.85	2.8	–
CC1(C)[C@@H](O)[C@H](O)C[C@]2(C)[C@H]3C[C@@H](O)[C@@H]4[C@@H]([C@@](C)(O)CCCNCCCc5ccccc5)CC[C@@]4(C)[C@]3(C)CC[C@@H]12	6.10	2.7	Activity (L6): Active; Activity (Hepatocyte): Non-Toxic; inhibition at 20 µM [5]: 80%; Activity (HepG2 [6]): Dose-dependent effect; Activity (HepG2 [7]): Dose-dependent effect
CC(C)(O)[C@@H]1CC[C@](C)([C@H]2CC[C@]3(C)[C@@H]2[C@H](O)C[C@@H]2[C@@]4(C)C[C@@H](O)[C@H](O)C(C)(C)[C@@H]4CC[C@]23C)O1	5.06	3.6	–
CC(C)NCCC[C@](C)(O)[C@H]1CC[C@]2(C)[C@@H]1[C@H](O)C[C@@H]1[C@@]3(C)C[C@@H](O)[C@H](O)C(C)(C)[C@@H]3CC[C@]12C	5.92	2	–
CC(C)=CCC[C@](C)(O)[C@H]1CC[C@]2(C)[C@@H]1[C@H](O)C[C@@H]1[C@@]3(C)C[C@@H](O)[C@H](O)C(C)(C)[C@@H]3CC[C@]12C	5.29	2.4	Activity (Syrian golden hamster [8]): Active; Activity (Syrian golden hamster [9]): Active; Activity (Syrian golden hamster [10]): Active; Activity (Syrian golden hamster [11]): inactive; Activity (HepG2 [12]): Active; Activity (HepG2 [13]): Active; Activity (Syrian golden hamster [14]): inactive; inhibition at 20 µM [5]: 25%
CNCCC[C@](C)(O)[C@H]1CC[C@]2(C)[C@@H]1[C@H](O)C[C@@H]1[C@@]3(C)C[C@@H](O)[C@H](O)C(C)(C)[C@@H]3CC[C@]12C	5.72	2.6	–
CC(C)(O)[C@H]1CC[C@](C)([C@H]2CC[C@]3(C)[C@@H]2[C@H](O)C[C@@H]2[C@@]4(C)C[C@@H](O)[C@H](O)C(C)(C)[C@@H]4CC[C@]23C)O1	5.26	3.9	–
CCCNCCC[C@](C)(O)[C@H]1CC[C@]2(C)[C@@H]1[C@H](O)C[C@@H]1[C@@]3(C)C[C@@H](O)[C@H](O)C(C)(C)[C@@H]3CC[C@]12C	5.72	2.9	–
N#Cc1c(O)c2c(-c3ccc(-c4ccccc4O)cc3)csc2[nH]c1=O	8.02	4.2	–

From ChEMBL document CHEMBL4715710, “Discovery, synthesis, and structure-activity relationships of 20S-dammar-24-en-2α,3β,12β,20-tetrol (GP) derivatives as a new class of AMPKα2β1γ1 activators” (Bioorg Med Chem, 2016)
